According to paper PMC8066331, “Anticancer Activity of Triazolo-Thiadiazole Derivatives and Inhibition of AKT1 and AKT2 Activation” (Pharmaceutics, 2021):
Read-outs that look alike come from different tables or passages of the source.

Legend:
DLD-1 = assay: MTT in vitro antiproliferative assay, DLD-1; type: cell-based, human; conditions: DLD-1, MTT; for TGI / GI50: 48 h drug exposure; for IC50 / GI50: Homo sapiens; for IC50: 48 h, 50% cell death
Source text: (§1) The in vitro antiproliferative activities of the novel triazolo[3,4-b]thiadiazole derivatives were estimated in ten well-established human cancer cell lines including three ovarian (SKOV-3, UWB 1.289, and UWB 1.289+BRCA1), five colorectal adenocarcinoma (DLD-1, HT-29, LS174T, LoVo, and SW403), and two prostate cancer cell lines (PC-3 and DU-145). All cancer cell lines were obtained from the American Type Culture Collection (ATCC) and cultivated in different culture media according to the instructions. The required growth mediums were supplemented with 10% fetal bovine serum and 1% streptomycin/penicillin. All cancer cell lines were cultured as monolayers and maintained at 37 °C, 5% CO2 in humidified air.
(§2) Stock solutions of all tested compounds were prepared by dissolving the required amount of substances in the DMSO solvent to reach the desired concentration of 15 mM.
(§3) To evaluate the in vitro antiproliferative activity of the triazolo[3,4-b]thiadiazole derivatives, 3-(4,5-dimethylthiazol-2-yl)-2,5-diphenyltetrazolium bromide (MTT) assay was assessed. According to the protocol, cells were firstly seeded into a 96-well plate at a density of 8 × 10^3 cells and grown for 24 h at 37 °C, 5% CO2 in humidified air. Subsequently, cells were treated with the tested compounds in a specific range of drug concentrations (1–100 μΜ). Following 48 h of drug exposure, the culture media were discarded and replaced with 100 μL of fresh medium. Afterwards, 50 μL of dissolved MTT in phosphate-buffered saline (PBS) solution (5 mg/mL) were added in each well and cells were incubated for 3 h at 37 °C, 5% CO2 in humidified air. Incubation time was followed by MTT discard and the addition of 100 μL of DMSO solvent so that the formazan crystals could be dissolved. The absorbance of the converted dye was immediately measured at a wavelength of 540 nm on an ELISA reader (VersaMax Microplate Reader, Orleans, CA, USA).
(§4) The in vitro anticancer effect of a tested compound on cell viability was determined by three dose–response parameters termed GI50, TGI, and IC50. More specifically, the GI50 value indicates the required concentration of the compound that impels 50% cell growth inhibition, the TGI value corresponds to the concentration that induces 100% cell growth inhibition, and the IC50 value is the concentration that causes 50% cell death. The two parameters GI50 and TGI represent the cytostatic activity, whereas IC50 reflects the cytotoxic effect of a drug. To estimate the three parameters, nine absorbance measurements were required including control 24 h (Ct24), control 72 h (Ct72), and the mean of cell survival in all seven drug concentrations (Tt72). The percentage growth inhibition was calculated according to National Cancer Institute’s (NCI) protocol: [(Tt72x) − (Ct24)/(Ct72) − (Ct24)] × 100 for concentrations for which Tt72x > Ct24 and [(Tt72x) − (Ct24)/Ct24] × 100 for concentrations for which Tt72x < Ct24. GI50 was calculated from [(Tt72x) − (Ct24)/(Ct72) − (Ct24)] × 100 = 50, TGI was calculated from [(Tt72x) − (Ct24)/(Ct72) − (Ct24)] × 100 = 0, and IC50 was calculated from [(Tt72x) − (Ct24)/Ct24] × 100 = 50. All the experiments were carried out in triplicate.

SKOV-3 = assay: MTT in vitro antiproliferative assay, SKOV-3; type: cell-based; conditions: Homo sapiens; for IC (TGI): read-out: TGI
Source text: as §1, §2, §3, §4

PC-3 = assay: MTT in vitro antiproliferative assay, PC-3; type: cell-based; conditions: Homo sapiens; for IC (TGI): read-out: TGI
Source text: as §1, §2, §3, §4

HT-29 = assay: MTT in vitro antiproliferative assay, HT-29; type: cell-based, human; conditions: for TGI: HT-29, MTT, 48 h drug exposure; for GI50 / IC50: Homo sapiens, HT-29, 48 h
Source text: as §1, §2, §3, §4

DU-145 = assay: MTT in vitro antiproliferative assay, DU-145; type: cell-based, human; conditions: for TGI: DU-145, MTT, 48 h drug exposure; for GI50 / IC50: Homo sapiens, DU-145, 48 h
Source text: as §1, §2, §3, §4

[1] = SK-OV-3, SKOV-3, MTT, 48 h, concentration causing 50% cell death, read-out: IC50
[2] = SK-OV-3, SKOV-3, MTT, 48 h drug exposure, read-out: GI50
[3] = SK-OV-3, SKOV-3, MTT, 48 h drug exposure
[4] = PC-3, MTT, 48 h, 50% cell death, read-out: IC50
[5] = PC-3, MTT, 48 h drug exposure, read-out: GI50

Row | GI50 (SKOV-3; [2]) [µM] | GI50 (PC-3; [5]) [µM] | Compound | TGI (DLD-1) [μΜ] | IC50 (DLD-1) [µM] | GI50 (DLD-1) [µM] | GI50 (SKOV-3; SK-OV-3, 48 h) [µM] | IC50 (SKOV-3; SK-OV-3, 48 h) [µM] | IC (TGI) (SKOV-3; SK-OV-3, 48 h) [µM] | GI50 (PC-3; PC-3, 48 h) [µM] | IC50 (PC-3; PC-3, 48 h) [µM] | IC (TGI) (PC-3; PC-3, 48 h) [µM] | TGI (HT-29) [μΜ] | GI50 (HT-29) [µM] | IC50 (HT-29) [µM] | TGI (DU-145) [μΜ] | GI50 (DU-145) [µM] | IC50 (SKOV-3; [1]) [µM] | IC (TGI) (SKOV-3; [3]) [µM] | IC50 (PC-3; [4]) [µM] | IC (TGI) (PC-3; PC-3, MTT, 48 h drug exposure) [µM] | also measured
1 | > 100 | 38 ± 2 | CCN(CC)S(=O)(=O)c1cc(OC)c(OC)cc1Cc1nnc2sc(/C=C/c3cccc([N+](=O)[O-])c3)nn12 [Compound 9c, (E)-N,N-diethyl-4,5-dimethoxy-2-((6-(3-nitrostyryl)-[1,2,4]triazolo[3,4-b][1,3,4]thiadiazol-3-yl)methyl)benzenesulfonamide] |  |  |  |  |  |  |  |  |  |  |  |  |  |  | > 100 | > 100 | > 100 | > 100 | 
2 | > 100 | 30 ± 0.5 | CCN(CC)S(=O)(=O)c1cc(OC)c(OC)cc1Cc1nnc2sc(/C=C/c3ccc([N+](=O)[O-])cc3)nn12 [Compound 9d, (E)-N,N-diethyl-4,5-dimethoxy-2-((6-(4-nitrostyryl)-[1,2,4]triazolo[3,4-b][1,3,4]thiadiazol-3-yl)methyl)benzenesulfonamide] |  |  |  |  |  |  |  |  |  |  |  |  |  |  | > 100 | > 100 | > 100 | > 100 | 
3 | 76 ± 6 | 2 ± 0.5 | COc1cc(Cc2nnc3sc(/C=C/c4ccc(Cl)cc4)nn23)c(S(=O)(=O)N(C(C)C)C(C)C)cc1OC [Compound 10a, (E)-2-((6-(4-chlorostyryl)-[1,2,4]triazolo[3,4-b][1,3,4]thiadiazol-3-yl)methyl)-N,N-diisopro-pyl-4,5-dimethoxybenzenesulfonamide] |  |  |  |  |  |  |  |  |  |  |  |  |  |  | > 100 | > 100 | > 100 | 84 ± 2 | 
4 | 50 ± 2 | 31 ± 1.1 | COc1cc(Cc2nnc3sc(/C=C/c4ccc(F)cc4)nn23)c(S(=O)(=O)N(C(C)C)C(C)C)cc1OC [Compound 10b, (E)-2-((6-(4-fluorostyryl)-[1,2,4]triazolo[3,4-b][1,3,4]thiadiazol-3-yl)methyl)-N,N-diisopro-pyl-4,5-dimethoxybenzenesulfonamide] |  |  |  |  |  |  |  |  |  |  |  |  |  |  | > 100 | > 100 | > 100 | > 100 | 

Second part, the compound before the results:

Row | Compound | GI50 (SKOV-3; [2]) [µM] | GI50 (PC-3; [5]) [µM] | TGI (DLD-1) [μΜ] | IC50 (DLD-1) [µM] | GI50 (DLD-1) [µM] | GI50 (SKOV-3; SK-OV-3, 48 h) [µM] | IC50 (SKOV-3; SK-OV-3, 48 h) [µM] | IC (TGI) (SKOV-3; SK-OV-3, 48 h) [µM] | GI50 (PC-3; PC-3, 48 h) [µM] | IC50 (PC-3; PC-3, 48 h) [µM] | IC (TGI) (PC-3; PC-3, 48 h) [µM] | TGI (HT-29) [μΜ] | GI50 (HT-29) [µM] | IC50 (HT-29) [µM] | TGI (DU-145) [μΜ] | GI50 (DU-145) [µM] | IC50 (SKOV-3; [1]) [µM] | IC (TGI) (SKOV-3; [3]) [µM] | IC50 (PC-3; [4]) [µM] | IC (TGI) (PC-3; PC-3, MTT, 48 h drug exposure) [µM] | also measured
5 | CCN(CC)S(=O)(=O)c1cc(OC)c(OC)cc1Cc1nnc2sc(-c3cc([N+](=O)[O-])ccc3[N+](=O)[O-])nn12 [Compound 6e, 2-((6-(2,5-dinitrophenyl)-[1,2,4]triazolo[3,4-b][1,3,4]thiadiazol-3-yl)methyl)-N,N-diethyl-4,5-dimethoxybenzenesulfonamide] |  |  | 37 ± 2.0 | 53.6 ± 1.05 | 25 ± 2 | 18 ± 0.7 | 38 ± 1.8 | 24 ± 1.2 | 11 ± 1 | 26.5 ± 0.9 | 17 ± 1 | 29 ± 0.5 | 18 ± 1 | 44 ± 1 | 18.3 ± 0.2 | 13 ± 0.5 |  |  |  |  | IC50 (DU-145): 28 ± 0.2 µM
6 | COc1cc(Cc2nnc3sc(-c4cc([N+](=O)[O-])ccc4[N+](=O)[O-])nn23)c(S(=O)(=O)N(C(C)C)C(C)C)cc1OC [Compound 7d, 2-((6-(2,5-dinitrophenyl)-[1,2,4]triazolo[3,4-b][1,3,4]thiadiazol-3-yl)methyl)-N,N-diisopropyl-4,5-dimethoxybenzenesulfonamide] |  |  | 12 ± 0.5 | 22 ± 1 | 7.3 ± 0.75 | 13 ± 0.5 | 23 ± 1.4 | 17 ± 1 | 8 ± 1 | 22 ± 0.3 | 11 ± 1.04 | 26 ± 1.52 | 17.9 ± 2.51 | 40 ± 1 | 14 ± 0.5 | 6.8 ± 0.8 |  |  |  |  | IC50 (DU-145): 21.3 ± 0.9 µM
